As a reminder, the MIC is the lowest concentration that inhibits growth of the organism. The low end stands for inhibition by little substance, the high end for a need for much substance. In general, IC50 refers to the concentration that inhibits the measured activity by half. A lower IC50 goes with greater potency in that assay.

In brackets after ≈: the same amount, converted by molar mass.

One assay concerns Bacillus cereus. Nature of the assay: Antibacterial activity against Bacillus cereus. It is filed as functional.
The subject of assay [1] is Staphylococcus aureus. Nature of the assay: Antibacterial activity against Staphylococcus aureus. The class given is functional.
The test system of a further assay is KB. Nature of the assay: Cytotoxicity against human KB cells. It is filed as cell-based. As to conditions: Homo sapiens, KB.
The test system of another assay is Bacillus subtilis. Nature of the assay: Antibacterial activity against Bacillus subtilis assessed as inhibition zone at 1 mg/ml measured after overnight incubation by disc diffusion method. The class given is functional. Particulars: read-out: IZ.
The test system of assay [2] is Staphylococcus aureus. Nature of the assay: Antibacterial activity against Staphylococcus aureus assessed as inhibition zone at 1 mg/ml measured after overnight incubation by disc diffusion method. It is filed as functional. Particulars: read-out: IZ. A general note: In agar diffusion tests the substance spreads into inoculated agar from a disc or well.
A further assay relates to Pseudomonas aeruginosa. Put plainly: Antibacterial activity against Pseudomonas aeruginosa assessed as inhibition zone at 1 mg/ml measured after overnight incubation by disc diffusion method. The class given is functional. As to conditions: read-out: IZ.
The next assay relates to Escherichia coli. Nature of the assay: Antibacterial activity against Escherichia coli assessed as inhibition zone at 1 mg/ml measured after overnight incubation by disc diffusion method. The class given is functional. As to conditions: read-out: IZ.

Regarding `CC(C)C[C@H](NC(=O)CNC(=O)C(C)(C)NC(=O)[C@@H](NC(=O)C(C)(C)NC(=O)[C@H](CCC(N)=O)NC(=O)[C@H](C)NC(=O)C(C)(C)NC(=O)[C@H](C)NC(=O)C(C)(C)NC(=O)[C@@H]1CCN(C(=O)C(C)(C)n2cc(-c3ccc(F)c(F)c3)nn2)C1)C(C)C)C(=O)NC(C)(C)C(=O)N1CCC[C@@H]1C(=O)N[C@H](C(=O)NC(C)(C)C(=O)NC(C)(C)C(=O)N[C@@H](CCC(N)=O)C(=O)N[C@@H](CCC(N)=O)C(=O)N[C@H](CO)Cc1ccccc1)C(C)C`, the MIC with Bacillus cereus and with Staphylococcus aureus [1] was 1.56 µg/mL (≈ 0.748 µM) each time. In the assay on KB, this compound displayed an IC50 of 2.9 µg/mL (≈ 1.39 µM).

For `CC(C)C[C@H](NC(=O)CNC(=O)C(C)(C)NC(=O)[C@@H](NC(=O)C(C)(C)NC(=O)[C@H](CCC(N)=O)NC(=O)[C@H](C)NC(=O)C(C)(C)NC(=O)[C@H](C)NC(=O)C(C)(C)NC(=O)[C@@H]1CCN(C(=O)C(C)(C)n2cc(-c3cc(F)cc(F)c3)nn2)C1)C(C)C)C(=O)NC(C)(C)C(=O)N1CCC[C@@H]1C(=O)N[C@H](C(=O)NC(C)(C)C(=O)NC(C)(C)C(=O)N[C@@H](CCC(N)=O)C(=O)N[C@@H](CCC(N)=O)C(=O)N[C@H](CO)Cc1ccccc1)C(C)C`, the MIC against Bacillus cereus and in the assay with Staphylococcus aureus [1] was 1.56 µg/mL (≈ 0.748 µM) throughout. This compound also displayed an IC50 in the assay with KB of 2.9 µg/mL (≈ 1.39 µM).

In the case of `CC(C)C[C@H](NC(=O)CNC(=O)C(C)(C)NC(=O)[C@@H](NC(=O)C(C)(C)NC(=O)[C@H](CCC(N)=O)NC(=O)[C@H](C)NC(=O)C(C)(C)NC(=O)[C@H](C)NC(=O)C(C)(C)NC(=O)[C@@H]1CCN(C(=O)C(C)(C)n2cc(-c3ccc4ccc5cccc6ccc3c4c56)nn2)C1)C(C)C)C(=O)NC(C)(C)C(=O)N1CCC[C@@H]1C(=O)N[C@H](C(=O)NC(C)(C)C(=O)NC(C)(C)C(=O)N[C@@H](CCC(N)=O)C(=O)N[C@@H](CCC(N)=O)C(=O)N[C@H](CO)Cc1ccccc1)C(C)C`, the MIC against Bacillus cereus and against Staphylococcus aureus [1] was 1.56 µg/mL (≈ 0.718 µM) throughout. In the assay with KB, this compound yielded an IC50 of 2.9 µg/mL (≈ 1.33 µM).

For the compound `CC(C)C[C@H](NC(=O)CNC(=O)C(C)(C)NC(=O)[C@@H](NC(=O)C(C)(C)NC(=O)[C@H](CCC(N)=O)NC(=O)[C@H](C)NC(=O)C(C)(C)NC(=O)[C@H](C)NC(=O)C(C)(C)NC(=O)[C@@H]1CCN(C(=O)C(C)(C)n2cc(-c3ccccc3C(F)(F)F)nn2)C1)C(C)C)C(=O)NC(C)(C)C(=O)N1CCC[C@@H]1C(=O)N[C@H](C(=O)NC(C)(C)C(=O)NC(C)(C)C(=O)N[C@@H](CCC(N)=O)C(=O)N[C@@H](CCC(N)=O)C(=O)N[C@H](CO)Cc1ccccc1)C(C)C`, the minimum inhibitory concentration (MIC) against Bacillus cereus and in the assay on Staphylococcus aureus [1] was 1.56 µg/mL (≈ 0.737 µM) each time. In the assay with KB, half-maximal inhibition (IC50) was put at 2.9 µg/mL (≈ 1.37 µM).

`Cc1ccc(-n2cc(CNc3ccccc3-c3nnc(-c4ccccc4)o3)nn2)cc1`: the zone of inhibition at 1000 µg/mL in the assay with Bacillus subtilis, in the assay on Staphylococcus aureus [2], in the assay with Pseudomonas aeruginosa and in the assay with Escherichia coli was 2.5 mm each time.

Consider `c1ccc(-c2nnc(-c3ccccc3NCc3cn(C4CCCCC4)nn3)o2)cc1`, for which the zone of inhibition at 1000 µg/mL in the assay on Bacillus subtilis, in the assay with Staphylococcus aureus [2], in the assay on Pseudomonas aeruginosa and in the assay on Escherichia coli was 2.5 mm in each case.

For `Clc1ccc(-n2cc(CNc3ccccc3-c3nnc(-c4ccccc4)o3)nn2)cc1`, the zone of inhibition at 1000 µg/mL with Bacillus subtilis, in the assay on Staphylococcus aureus [2], in the assay with Pseudomonas aeruginosa and in the assay with Escherichia coli was 2.5 mm in each case.

Turning to `CC(C)C[C@H](NC(=O)CNC(=O)C(C)(C)NC(=O)[C@@H](NC(=O)C(C)(C)NC(=O)[C@H](CCC(N)=O)NC(=O)[C@H](C)NC(=O)C(C)(C)NC(=O)[C@H](C)NC(=O)C(C)(C)NC(=O)[C@@H]1CCN(C(=O)C(C)(C)n2cc(-c3cccc(C(F)(F)F)c3)nn2)C1)C(C)C)C(=O)NC(C)(C)C(=O)N1CCC[C@@H]1C(=O)N[C@H](C(=O)NC(C)(C)C(=O)NC(C)(C)C(=O)N[C@@H](CCC(N)=O)C(=O)N[C@@H](CCC(N)=O)C(=O)N[C@H](CO)Cc1ccccc1)C(C)C`, the MIC against Bacillus cereus and in the assay on Staphylococcus aureus [1] was 1.56 µg/mL (≈ 0.737 µM) each time. For the same compound, in the assay with KB, 2.9 µg/mL (≈ 1.37 µM) corresponded to half-maximal inhibition (IC50).

`CC(C)C[C@H](NC(=O)CNC(=O)C(C)(C)NC(=O)[C@@H](NC(=O)C(C)(C)NC(=O)[C@H](CCC(N)=O)NC(=O)[C@H](C)NC(=O)C(C)(C)NC(=O)[C@H](C)NC(=O)C(C)(C)NC(=O)[C@@H]1CCN(C(=O)C(C)(C)n2cc(-c3ccccc3)nn2)C1)C(C)C)C(=O)NC(C)(C)C(=O)N1CCC[C@@H]1C(=O)N[C@H](C(=O)NC(C)(C)C(=O)NC(C)(C)C(=O)N[C@@H](CCC(N)=O)C(=O)N[C@@H](CCC(N)=O)C(=O)N[C@H](CO)Cc1ccccc1)C(C)C`: the minimal inhibitory concentration (MIC) with Bacillus cereus and in the assay on Staphylococcus aureus [1] was 1.56 µg/mL (≈ 0.761 µM) each time. Also, the IC50 in the assay with KB was 2.9 µg/mL (≈ 1.42 µM).

As to `CC(C)C[C@H](NC(=O)CNC(=O)C(C)(C)NC(=O)[C@@H](NC(=O)C(C)(C)NC(=O)[C@H](CCC(N)=O)NC(=O)[C@H](C)NC(=O)C(C)(C)NC(=O)[C@H](C)NC(=O)C(C)(C)NC(=O)[C@@H]1CCN(C(=O)C(C)(C)n2cc(-c3ccc(F)cc3F)nn2)C1)C(C)C)C(=O)NC(C)(C)C(=O)N1CCC[C@@H]1C(=O)N[C@H](C(=O)NC(C)(C)C(=O)NC(C)(C)C(=O)N[C@@H](CCC(N)=O)C(=O)N[C@@H](CCC(N)=O)C(=O)N[C@H](CO)Cc1ccccc1)C(C)C`, the MIC in the assay on Bacillus cereus and in the assay on Staphylococcus aureus [1] was 1.56 µg/mL (≈ 0.748 µM) each time. Also, the IC50 in the assay with KB amounted to 2.9 µg/mL (≈ 1.39 µM).

Turning to `CC(C)C[C@H](NC(=O)CNC(=O)C(C)(C)NC(=O)[C@@H](NC(=O)C(C)(C)NC(=O)[C@H](CCC(N)=O)NC(=O)[C@H](C)NC(=O)C(C)(C)NC(=O)[C@H](C)NC(=O)C(C)(C)NC(=O)[C@@H]1CCN(C(=O)C(C)(C)n2cc(-c3ccc(OC(F)(F)F)c(F)c3)nn2)C1)C(C)C)C(=O)NC(C)(C)C(=O)N1CCC[C@@H]1C(=O)N[C@H](C(=O)NC(C)(C)C(=O)NC(C)(C)C(=O)N[C@@H](CCC(N)=O)C(=O)N[C@@H](CCC(N)=O)C(=O)N[C@H](CO)Cc1ccccc1)C(C)C`, the minimal inhibitory concentration (MIC) in the assay on Bacillus cereus and with Staphylococcus aureus [1] was 1.56 µg/mL (≈ 0.725 µM) each time. The compound further registered an IC50 with KB of 2.9 µg/mL (≈ 1.35 µM).

As to `COc1ccc2ccc(-c3cn(C(C)(C)C(=O)N4CC[C@@H](C(=O)NC(C)(C)C(=O)N[C@@H](C)C(=O)NC(C)(C)C(=O)N[C@@H](C)C(=O)N[C@@H](CCC(N)=O)C(=O)NC(C)(C)C(=O)N[C@H](C(=O)NC(C)(C)C(=O)NCC(=O)N[C@@H](CC(C)C)C(=O)NC(C)(C)C(=O)N5CCC[C@@H]5C(=O)N[C@H](C(=O)NC(C)(C)C(=O)NC(C)(C)C(=O)N[C@@H](CCC(N)=O)C(=O)N[C@@H](CCC(N)=O)C(=O)N[C@H](CO)Cc5ccccc5)C(C)C)C(C)C)C4)nn3)cc2c1`, the MIC with Bacillus cereus and against Staphylococcus aureus [1] was 1.56 µg/mL (≈ 0.733 µM) each time. It took 2.9 µg/mL (≈ 1.36 µM) to reach half-maximal inhibition in the assay with KB (IC50).

`CC(C)C[C@H](NC(=O)CNC(=O)C(C)(C)NC(=O)[C@@H](NC(=O)C(C)(C)NC(=O)[C@H](CCC(N)=O)NC(=O)[C@H](C)NC(=O)C(C)(C)NC(=O)[C@H](C)NC(=O)C(C)(C)NC(=O)[C@@H]1CCN(C(=O)C(C)(C)n2cc(-c3cc(C(F)(F)F)cc(C(F)(F)F)c3)nn2)C1)C(C)C)C(=O)NC(C)(C)C(=O)N1CCC[C@@H]1C(=O)N[C@H](C(=O)NC(C)(C)C(=O)NC(C)(C)C(=O)N[C@@H](CCC(N)=O)C(=O)N[C@@H](CCC(N)=O)C(=O)N[C@H](CO)Cc1ccccc1)C(C)C`: the MIC with Bacillus cereus and against Staphylococcus aureus [1] was 1.56 µg/mL (≈ 0.714 µM) in each case. This compound also gave a 50% inhibitory concentration (IC50) in the assay with KB of 2.9 µg/mL (≈ 1.33 µM).

Consider `CC(C)C[C@H](NC(=O)CNC(=O)C(C)(C)NC(=O)[C@@H](NC(=O)C(C)(C)NC(=O)[C@H](CCC(N)=O)NC(=O)[C@H](C)NC(=O)C(C)(C)NC(=O)[C@H](C)NC(=O)C(C)(C)NC(=O)[C@@H]1CCN(C(=O)C(C)(C)n2cc(-c3ccc(-c4ccccc4)cc3)nn2)C1)C(C)C)C(=O)NC(C)(C)C(=O)N1CCC[C@@H]1C(=O)N[C@H](C(=O)NC(C)(C)C(=O)NC(C)(C)C(=O)N[C@@H](CCC(N)=O)C(=O)N[C@@H](CCC(N)=O)C(=O)N[C@H](CO)Cc1ccccc1)C(C)C`, for which the MIC in the assay on Bacillus cereus and in the assay on Staphylococcus aureus [1] was 1.56 µg/mL (≈ 0.734 µM) each time. Also, the IC50 with KB was 2.9 µg/mL (≈ 1.36 µM).

On to `Cc1ccccc1-n1cc(CNc2ccccc2-c2nnc(-c3ccccc3)o2)nn1`, for which the zone of inhibition at 1000 µg/mL with Bacillus subtilis, in the assay with Staphylococcus aureus [2], in the assay on Pseudomonas aeruginosa and in the assay with Escherichia coli was 2.5 mm throughout.

Take `COc1ccc(-n2cc(CNc3ccccc3-c3nnc(-c4ccccc4)o3)nn2)c([N+](=O)[O-])c1`: the zone of inhibition at 1000 µg/mL in the assay with Bacillus subtilis, with Staphylococcus aureus [2], in the assay with Pseudomonas aeruginosa and in the assay on Escherichia coli was 2.5 mm in each case.

`CC(=O)C(C)(C)C(=O)N1CC[C@@H](C(=O)NC(C)(C)C(=O)N[C@@H](C)C(=O)NC(C)(C)C(=O)N[C@@H](C)C(=O)N[C@@H](CCC(N)=O)C(=O)NC(C)(C)C(=O)N[C@H](C(=O)NC(C)(C)C(=O)NCC(=O)N[C@@H](CC(C)C)C(=O)NC(C)(C)C(=O)N2CCC[C@@H]2C(=O)N[C@H](C(=O)NC(C)(C)C(=O)NC(C)(C)C(=O)N[C@@H](CCC(N)=O)C(=O)N[C@@H](CCC(N)=O)C(=O)N[C@H](CO)Cc2ccccc2)C(C)C)C(C)C)C1`: the MIC in the assay on Bacillus cereus and against Staphylococcus aureus [1] was 1.56 µg/mL (≈ 0.801 µM) in each case. In addition, the midpoint of inhibition in the assay with KB, the IC50, lay at 1.56 µg/mL (≈ 0.801 µM).

Regarding `c1ccc(-c2nnc(-c3ccccc3NCc3cn(-c4ccccc4-c4ccc(-c5nnco5)cc4)nn3)o2)cc1`, the zone of inhibition at 1000 µg/mL in the assay on Bacillus subtilis, in the assay with Staphylococcus aureus [2], in the assay with Pseudomonas aeruginosa and with Escherichia coli was 2.5 mm each time.

Consider `COc1ccccc1-n1cc(CNc2ccccc2-c2nnc(-c3ccccc3)o2)nn1`, for which the zone of inhibition at 1000 µg/mL in the assay on Bacillus subtilis, in the assay on Staphylococcus aureus [2], in the assay on Pseudomonas aeruginosa and in the assay with Escherichia coli was 2.5 mm in each case.

The values above are taken from ChEMBL document CHEMBL4699440, “Comprehensive review on the anti-bacterial activity of 1,2,3-triazole hybrids” (Eur J Med Chem, 2019).
